The assay addresses T1, human PD-1 / PD-L1-Ig binding on Jurkat cell line over-expressing human PD-1 (Jurkat-PD-1) (Homo sapiens, UniProt Q15116).
T1 construct: expressed in transfected cells; host or cells: Jurkat
The experiment in a line: Jurkat-PD-1 Cell Binding High-Content Screening Assay (CBA). The following applies: Jurkat-PD-1 cells, PE-labeled PD-L1-Ig 20 nM final; read-out: Jurkat HPD1_PDL1 IC50. It is filed as cell-based. The method in brief:
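Read-out: high-content imaging of PE-tagged PD-L1-Ig bound to Jurkat cells overexpressing human PD-1, after fixation with 4% paraformaldehyde and Hoechst 33342 nuclear staining. Ligand was used at 20 nM final for 1 hour, after a 2 h compound exposure at 37° C in serum-containing DMEM.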

Structures are written as SMILES. Where a SMILES comes first, the peptide text is derived from it. Bridges are numbered along the chain shown (N, C = ends). [ ]: non-standard residue; d: D form. The star is where a group is joined. ξ: configuration not given here. Phe(2-CF3) = N[C@@H](Cc1ccccc1C(F)(F)F)C(=O)O; Bip = N[C@@H](Cc1ccc(-c2ccccc2)cc1)C(=O)O; Phe(3-Me) = Cc1cccc(C[C@H](N)C(=O)O)c1; Val(3-OH) = CC(C)(O)[C@H](N)C(=O)O; 4Pal = N[C@@H](Cc1ccncc1)C(=O)O; Cha = N[C@@H](CC1CCCCC1)C(=O)O; Cit = NC(=O)NCCC[C@H](N)C(=O)O; Thr(3ξ) = CC(O)[C@H](N)C(=O)O; Carboxymethyl = O=C(O)C*; Nle = CCCC[C@H](N)C(=O)O; Orn = NCCC[C@H](N)C(=O)O; Dab = NCC[C@H](N)C(=O)O; Dap = NC[C@H](N)C(=O)O; Propargyl = C#CC*

T1 sequence (Q15116 25-288): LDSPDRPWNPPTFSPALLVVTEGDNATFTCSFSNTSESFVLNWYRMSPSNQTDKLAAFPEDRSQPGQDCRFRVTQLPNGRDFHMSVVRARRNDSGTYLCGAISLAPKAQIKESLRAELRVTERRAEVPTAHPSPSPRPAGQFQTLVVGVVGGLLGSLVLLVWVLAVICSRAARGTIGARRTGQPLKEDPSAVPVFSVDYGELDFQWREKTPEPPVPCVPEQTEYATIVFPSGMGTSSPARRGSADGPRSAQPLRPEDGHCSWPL

In the case of `Cc1cccc(C[C@@H]2NC(=O)[C@H](CC(=O)O)NC(=O)[C@H](Cc3ccc(OCC(=O)O)cc3)NC(=O)[C@H](CN)NC(=O)CSC[C@@H](C(=O)NCC(N)=O)NC(=O)[C@H]([C@@H](C)O)NC(=O)[C@H](C(C)C)NC(=O)[C@H](CC3CCCCC3)NC(=O)[C@H](CCN)NC(=O)[C@@H](CC(C)C)NC(=O)[C@H](CCCN)NC(=O)[C@H](CCCNC(N)=O)NC(=O)[C@H](Cc3ccc(-c4ccccc4)cc3)NC(=O)[C@H](C(C)C)NC2=O)c1` [Compound 2255] ({CH2CO}-[Dap]Y(Carboxymethyl)D[Phe(3-Me)]V[Bip][Cit][Orn][dL][Dab][Cha]VTCG-NH2; thioether N-14), the IC50 (in general, the concentration at which inhibition is half-maximal) came to 11.8 nM.
Turning to `CCCC[C@@H]1NC(=O)[C@H](CCN)NC(=O)[C@@H](CC(C)C)NC(=O)[C@H](CCCN)NC(=O)[C@H]([C@@H](C)CC)NC(=O)[C@H](Cc2ccc(-c3ccccc3)cc2)NC(=O)[C@H](C(C)C)NC(=O)[C@H](Cc2c[nH]c3ccccc23)NC(=O)[C@H](CC(=O)O)NC(=O)[C@H](Cc2ccc(O)cc2)NC(=O)[C@H](CN)NC(=O)CSC[C@@H](C(=O)N[C@@H](C)C(N)=O)NC(=O)[C@H]([C@@H](C)O)NC(=O)[C@H](C(C)C)NC1=O` [Compound 1160] ({CH2CO}-[Dap]YDWV[Bip]I[Orn][dL][Dab][Nle]VTCA-NH2; thioether N-14), the IC50 was determined as 31.3 nM.
As for `CC(C)C[C@H]1NC(=O)[C@H](CCCN)NC(=O)[C@H](CCCCN)NC(=O)[C@H](Cc2ccc(-c3ccccc3)cc2)NC(=O)[C@H](C(C)C)NC(=O)[C@H](Cc2c[nH]c3ccccc23)NC(=O)[C@H](CC(=O)O)NC(=O)[C@H](Cc2ccc(O)cc2)NC(=O)[C@H](CC(N)=O)NC(=O)CSC[C@@H](C(=O)N[C@@H](C)C(N)=O)NC(=O)[C@H]([C@@H](C)O)NC(=O)[C@H](C(C)C)NC(=O)[C@H](CC2CCCCC2)NC(=O)[C@H](CCN)NC1=O` [Compound 1381] ({CH2CO}-NYDWV[Bip]K[Orn][dL][Dab][Cha]VTCA-NH2; thioether N-14), the figure is 13.3 nM; as for `CC(C)C[C@H]1NC(=O)[C@H](CCCN)NC(=O)[C@H](CCC(=O)O)NC(=O)[C@H](Cc2ccc(-c3ccccc3)cc2)NC(=O)[C@H](C(C)C)NC(=O)[C@H](Cc2c[nH]c3ccccc23)NC(=O)[C@H](CC(=O)O)NC(=O)[C@H](Cc2ccc(C#N)cc2)NC(=O)[C@H](Cc2ccc(OCC(=O)O)cc2)NC(=O)CSC[C@@H](C(=O)N[C@@H](C)C(N)=O)NC(=O)[C@H]([C@@H](C)O)NC(=O)[C@H](C(C)C)NC(=O)[C@H](CC2CCCCC2)NC(=O)[C@H](CCN)NC1=O` [Compound 2188], 24.1 nM; as for `CC(C)C[C@H]1NC(=O)[C@H](CCCN)NC(=O)[C@H](CCC(=O)O)NC(=O)[C@H](Cc2ccc(-c3ccccc3)cc2)NC(=O)[C@H](C(C)C)NC(=O)[C@H](Cc2ccc(O)cc2)NC(=O)[C@H](CC(=O)O)NC(=O)[C@H](Cc2ccc(OCC(=O)O)cc2)NC(=O)[C@H](CN)NC(=O)CSC[C@@H](C(=O)N[C@@H](C)C(N)=O)NC(=O)[C@H]([C@@H](C)O)NC(=O)[C@H](C(C)C)NC(=O)[C@H](CC2CCCCC2)NC(=O)[C@H](CCN)NC1=O` [Compound 2141] ({CH2CO}-[Dap]Y(Carboxymethyl)DYV[Bip]E[Orn][dL][Dab][Cha]VTCA-NH2; thioether N-14), 26.1 nM.
As for `CC(C)C[C@H]1NC(=O)[C@H](CCCN)NC(=O)[C@H](C(C)C)NC(=O)[C@H](Cc2ccc(-c3ccccc3)cc2)NC(=O)[C@H](C(C)C)NC(=O)[C@H](Cc2c[nH]c3ccccc23)NC(=O)[C@H](CC(=O)O)NC(=O)[C@H](Cc2ccc(OCC(=O)O)cc2)NC(=O)[C@H](Cc2cnc[nH]2)NC(=O)CSC[C@@H](C(=O)N[C@H](C)C(N)=O)NC(=O)[C@H](C(C)O)NC(=O)[C@H](C(C)(C)O)NC(=O)[C@H](CC2CCCCC2)NC(=O)[C@H](CCN)NC1=O` (stereo partly drawn) [Compound 2659] ({CH2CO}-HY(Carboxymethyl)DWV[Bip]V[Orn][dL][Dab][Cha][Val(3-OH)][Thr(3ξ)]C[dA]-NH2; thioether N-14), the IC50 worked out at 11.8 nM.
In the case of `CC(C)C[C@H]1NC(=O)[C@H](CCCN)NC(=O)[C@H](CCC(=O)O)NC(=O)[C@H](Cc2ccc(-c3ccccc3)cc2)NC(=O)[C@H](C(C)C)NC(=O)[C@H](Cc2c[nH]c3ccccc23)NC(=O)[C@H](CC(=O)O)NC(=O)[C@H](Cc2ccc(OCC(=O)O)cc2)NC(=O)[C@H](CN)NC(=O)CSC[C@@H](C(=O)N[C@@H](C)C(N)=O)NC(=O)[C@H]([C@@H](C)O)NC(=O)[C@H](C(C)C)NC(=O)[C@H](Cc2ccccc2C(F)(F)F)NC(=O)[C@H](CCN)NC1=O` [Compound 1486] ({CH2CO}-[Dap]Y(Carboxymethyl)DWV[Bip]E[Orn][dL][Dab][Phe(2-CF3)]VTCA-NH2; thioether N-14), the IC50 came out at 43.7 nM.
As for `CC(C)C[C@@H]1NC(=O)[C@H](Cc2c[nH]c3ccccc23)NC(=O)[C@H](CC(=O)O)NC(=O)[C@H](Cc2ccc(O)cc2)NC(=O)[C@H](Cc2ccccc2)NC(=O)CSC[C@@H](C(=O)N[C@@H](C)C(N)=O)NC(=O)[C@H](CO)NC(=O)[C@H](C(C)C)NC(=O)[C@H](CC(C)C)NC(=O)[C@H](CCN)NC(=O)[C@@H](CC(C)C)NC(=O)[C@H](CCN)NC(=O)[C@H](C(C)C)NC(=O)[C@H](Cc2ccc(-c3ccccc3)cc2)NC1=O` [Compound 1061] ({CH2CO}-FYDWL[Bip]V[Dab][dL][Dab]LVSCA-NH2; thioether N-14), the figure is 8.8 nM.
As to `CCCC[C@@H]1NC(=O)[C@H](CCN)NC(=O)[C@@H](CC(C)C)NC(=O)[C@H](CCCN)NC(=O)[C@H]([C@@H](C)CC)NC(=O)[C@H](Cc2ccc(-c3ccccc3)cc2)NC(=O)[C@H](C(C)C)NC(=O)[C@H](Cc2c[nH]c3ccccc23)NC(=O)[C@H](CC(=O)O)NC(=O)[C@H](Cc2ccc(O)cc2)NC(=O)[C@H](Cc2ccc(OCC(=O)O)cc2)NC(=O)CSC[C@@H](C(=O)N[C@@H](C)C(N)=O)NC(=O)[C@H]([C@@H](C)O)NC(=O)[C@H](C(C)C)NC1=O` [Compound 1168] ({CH2CO}-Y(Carboxymethyl)YDWV[Bip]I[Orn][dL][Dab][Nle]VTCA-NH2; thioether N-14), the half-maximal inhibitory concentration (IC50) is 26.3 nM.
`CC(C)C[C@H]1NC(=O)[C@H](CCCN)NC(=O)[C@H](C(C)C)NC(=O)[C@H](Cc2ccc(-c3ccccc3)cc2)NC(=O)[C@H](C(C)C)NC(=O)[C@H](Cc2c[nH]c3ccccc23)NC(=O)[C@H](CC(=O)O)NC(=O)[C@H](Cc2ccc(O)cc2)NC(=O)[C@H](CCC(N)=O)NC(=O)CSC[C@@H](C(=O)N[C@@H](C)C(N)=O)NC(=O)[C@H](C(C)O)NC(=O)[C@H](C(C)C)NC(=O)[C@H](CC2CCCCC2)NC(=O)[C@H](CCN)NC1=O` (stereo partly drawn) [Compound 2525] ({CH2CO}-QYDWV[Bip]V[Orn][dL][Dab][Cha]V[Thr(3ξ)]CA-NH2; thioether N-14): the half-inhibitory concentration (IC50) amounted to 17.3 nM.
On to `C#CCOc1ccc(C[C@@H]2NC(=O)[C@H](CCN)NC(=O)CSC[C@@H](C(=O)N[C@@H](CCN)C(N)=O)NC(=O)[C@H](CCC(=O)O)NC(=O)[C@H](C(C)C)NC(=O)[C@H](CC3CCCCC3)NC(=O)[C@H](CCN)NC(=O)[C@@H](CC(C)C)NC(=O)[C@H](CCCN)NC(=O)[C@H](Cc3ccc(OCC(=O)O)cc3)NC(=O)[C@H](Cc3ccc(-c4ccccc4)cc3)NC(=O)[C@H](Cc3ccc(OCC(=O)O)cc3)NC(=O)[C@H](Cc3cccc(C)c3)NC(=O)[C@H](CC(=O)O)NC2=O)cc1` [Compound 1820] ({CH2CO}-[Dab]Y(Propargyl)D[Phe(3-Me)]Y(Carboxymethyl)[Bip]Y(Carboxymethyl)[Orn][dL][Dab][Cha]VEC[Dab]-NH2; thioether N-14), for which the half-maximal inhibitory concentration (IC50) amounted to 17.2 nM.
`CC(C)C[C@@H]1NC(=O)[C@H](Cc2c[nH]c3ccccc23)NC(=O)[C@H](CC(=O)O)NC(=O)[C@H](Cc2ccc(O)cc2)NC(=O)[C@H](Cc2ccccc2)NC(=O)CSC[C@@H](C(=O)N[C@@H](C)C(N)=O)NC(=O)[C@H](CO)NC(=O)[C@H](C(C)C)NC(=O)[C@H](CC(C)C)NC(=O)[C@H](CCN)NC(=O)[C@@H](C)NC(=O)[C@H](CN)NC(=O)[C@H](C(C)C)NC(=O)[C@H](Cc2ccc(-c3ccccc3)cc2)NC1=O` [Compound 1079] ({CH2CO}-FYDWL[Bip]V[Dap][dA][Dab]LVSCA-NH2; thioether N-14): the half-maximal inhibitory concentration (IC50) was determined as 29.5 nM.
Regarding `CC(C)C[C@@H]1NC(=O)[C@H](CCN)NC(=O)[C@@H](CC(C)C)NC(=O)[C@H](CCN)NC(=O)[C@H](CCC(=O)O)NC(=O)[C@H](Cc2ccc(-c3ccccc3)cc2)NC(=O)[C@H](C(C)C)NC(=O)[C@H](Cc2c[nH]c3ccccc23)NC(=O)[C@H](CC(=O)O)NC(=O)[C@H](Cc2ccncc2)NC(=O)[C@H](CN)NC(=O)CSC[C@@H](C(=O)N[C@@H](C)C(N)=O)NC(=O)[C@H](CO)NC(=O)[C@H](C(C)C)NC1=O` [Compound 1267] ({CH2CO}-[Dap][4Pal]DWV[Bip]E[Dab][dL][Dab]LVSCA-NH2; thioether N-14), the 50% inhibitory concentration (IC50) turned out to be 99.9 nM.
`CC[C@H](C)[C@@H]1NC(=O)[C@H](Cc2c[nH]c3ccccc23)NC(=O)[C@H](CC(=O)O)NC(=O)[C@H](Cc2ccc(OCC(=O)O)cc2)NC(=O)[C@H](CN)NC(=O)CSC[C@@H](C(=O)N[C@@H](C)C(N)=O)NC(=O)[C@H]([C@@H](C)O)NC(=O)[C@H](C(C)C)NC(=O)[C@H](CC2CCCCC2)NC(=O)[C@H](CCN)NC(=O)[C@@H](CC(C)C)NC(=O)[C@H](CCCN)NC(=O)[C@H](CCCNC(N)=O)NC(=O)[C@H](Cc2ccc(-c3ccccc3)cc2)NC1=O` [Compound 1316] ({CH2CO}-[Dap]Y(Carboxymethyl)DWI[Bip][Cit][Orn][dL][Dab][Cha]VTCA-NH2; thioether N-14): the half-maximal inhibitory concentration (IC50) worked out at 9.1 nM.
As for `CCCC[C@@H]1NC(=O)[C@H](CC(N)=O)NC(=O)[C@@H](CC(C)C)NC(=O)[C@H](CN)NC(=O)[C@H](C(C)C)NC(=O)[C@H](Cc2ccc(-c3ccccc3)cc2)NC(=O)[C@H](CC(C)C)NC(=O)[C@H](Cc2c[nH]c3ccccc23)NC(=O)[C@H](CC(=O)O)NC(=O)[C@H](Cc2ccncc2)NC(=O)[C@H](Cc2ccc(OCC(=O)O)cc2)NC(=O)CSC[C@@H](C(=O)NCC(N)=O)NC(=O)[C@H](CO)NC(=O)[C@H](C(C)C)NC1=O` [Compound 1401] ({CH2CO}-Y(Carboxymethyl)[4Pal]DWL[Bip]V[Dap][dL]N[Nle]VSCG-NH2; thioether N-14), the figure is 22 nM.

These data come from patent publication US20250163104A1, “MACROCYCLIC IMMUNOMODULATORS” (priority 2021, published 2025).
